Entries after “also recorded” stand apart in the source; their conditions may differ.
Legend:
[1] = tested on: animal model with high-fat-diet-induced muscle loss; experiment: Grip test in mice fed a high-fat diet; type: in vivo, C57BL/6N mice; conditions: 0.2% ethyl vanillin in high-fat diet, week 10
Experimental: A normal diet group (Chow) was fed commercial rodent chow. Ethyl vanillin was purchased from Sigma-Aldrich. [table] To measure the grip strength of mice, grip strength was measured using four feet of the mice at week 10 of breeding. A force (N) for mice to hold a wire mesh was measured a total of five times using a grip strength measurer equipped with a wire mesh (20×10 cm) (Daejong Instrument Industry Co., Ltd., Korea), and a rest period of 1 minute or longer was given between measurements. Experimental results were obtained by dividing the measured force (N) by body weight (kg). The statistical analysis of all data was performed using the Statistical Package for the Social Sciences (SPSS version 21.0, IBM, Armonk, N.Y., USA), and analysis values were expressed as mean±SEM, and a significant difference between groups was verified by ANOVA.

[2] = cited from earlier work
[3] = tested on: p-4E-BP1 protein; experiment: Protein expression level by Western blotting in myotubes; type: cell-based, mouse; conditions: ethyl vanillin with dexamethasone vs dexamethasone control
Experimental: (§1) After completing the incubation of all experimental groups and the control, the media were removed and a lysis buffer was added to each well to lyse the cells. As the lysis buffer, a 100 mM Tris-HCl buffer solution (pH 7.4) containing 5 mM EDTA, 50 mM sodium pyrophosphate, 50 mM NaF, 100 mM orthovanadate, 1% Triton X-100, 1 mM phenylmethanesulfonyl fluoride (PMSF), […] of aprotinin, 1 μg/mL of pepstatin A, and 1 μg/mL of leupeptin was used. After lysing the cells, the lysates were obtained, and then centrifuged at 1,300×g and 4° C. for 20 minutes, and then the middle layer was taken as a protein layer in the cell extract. For the protein layer, the concentrations of proteins were quantified by the Bradford method. 40 μg of the quantified proteins were electrophoresed by SDS-PAGE, and then the separated proteins were transferred to nitrocellulose membranes (Amersham, Buckinghamshire, UK). Then, the membranes were washed three times for 10 minutes using a Tris-buffered saline and Tween 20 solution (TBS-T), followed by blocking using 10% skim milk for 60 minutes. […] Bands visualized on the X-ray film were scanned and quantified using Quantity One analysis software (Bio-Rad).

[4] = tested on: p-p70S6K1 protein; experiment: as above; type: cell-based, mouse; conditions: ethyl vanillin with dexamethasone vs dexamethasone control
Experimental: as §1

[5] = tested on: Myostatin; experiment: mRNA expression level by RT-PCR in myotubes; type: cell-based, mouse; conditions: ethyl vanillin with dexamethasone vs dexamethasone control
Experimental: (§2) After completing the incubation of all experimental groups and the control, cells of each group were obtained, 334 μl of a TRIzol solution per 1×10^7 myotubes was added and replaced, followed by centrifugation at 12,000×g and 4° C. for 10 minutes. Thereafter, the supernatant was transferred to a new tube and 67 μl of chloroform was added thereto, followed by mixing by vortexing. The supernatant in the mixed solution was transferred again to a new tube, and isopropanol was added thereto in a ratio of 1:1 (v:v) of isopropanol to supernatant, followed by vigorous shaking about 10 times and being left at room temperature for 15 minutes. Once again, centrifugation was carried out at 12,000×g and 4° C. for 10 minutes to remove a supernatant, and 1 ml of 70% ethanol was added to the precipitate, followed by centrifugation at 7,500×g and 4° C. for 5 minutes to remove the ethanol, and the tubes were dried at room temperature for 15 minutes. Finally, precipitated RNA was dissolved in nuclease free water to obtain RNA extracted from the cells. The concentration of RNA was identified by measuring absorbance at wavelengths of 260 nm and 280 nm using a UV/VIS spectrometer, and was subjected to electrophoresis to confirm the integrity of RNA samples.
(§3) Reverse transcription-polymerase chain reaction (RT-PCR) was performed using the prepared RNA samples. The obtained RNA samples were used as templates and reverse transcription was performed using oligo dT primers and SuperScript Reverse Transcriptase (GIBCO BRL, Gaithersburg, Md., USA) to synthesize cDNA. The synthesized cDNA was used as a template and PCR was performed using primer pairs (forward primers and reverse primers) shown in Table 1 below. Each primer was constructed based on the 5′ and 3′ flanking sequence of cDNA of the template gene to be amplified. After PCR was completed, 1 μl of each amplified PCR product was subjected to electrophoresis on agarose gel to confirm generated DNA bands.

[6] = tested on: MuRF1; experiment: mRNA expression level by RT-PCR in myotubes; type: cell-based, mouse; conditions: ethyl vanillin with dexamethasone vs dexamethasone control
Experimental: as §2, §3

[7] = tested on: MaFbx/atrogin 1; experiment: mRNA expression level by RT-PCR in myotubes; type: cell-based, mouse; conditions: ethyl vanillin with dexamethasone vs dexamethasone control
Experimental: as §2, §3

[8] = tested on: animal model with high-fat-diet-induced muscle loss; experiment: Fiber diameter of tibialis anterior muscle tissue (H&E staining); type: in vivo, C57BL/6N mice; conditions: 0.2% ethyl vanillin in high-fat diet, 10 weeks
Experimental: A normal diet group (Chow) was fed commercial rodent chow. Ethyl vanillin was purchased from Sigma-Aldrich. [table] Muscle tissues of mice were extracted, fixed in 10% formalin, and then stained with hematoxylin and eosin (H&E) after requesting Korea CFC (Gyeonggi-do, Korea) to do so, and observed using an optical microscope (IX71, Olympus, JPN) and photographed using a digital camera (DP71, Olympus, JPN). The statistical analysis of all data was performed using the Statistical Package for the Social Sciences (SPSS version 21.0, IBM, Armonk, N.Y., USA), and analysis values were expressed as mean±SEM, and a significant difference between groups was verified by ANOVA.

[9] = tested on: animal model with high-fat-diet-induced muscle loss; experiment: Four limb hanging test in mice fed a high-fat diet; type: in vivo, C57BL/6N mice; conditions: 0.2% ethyl vanillin in high-fat diet, week 10
Experimental: A normal diet group (Chow) was fed commercial rodent chow. Ethyl vanillin was purchased from Sigma-Aldrich. [table] To measure the limb muscle strength of mice, the time that the mice hung upside down using their four feet was measured at week 10 of breeding. The time (seconds) that the mice hung upside down in a cage equipped with a wire mesh cover (diameter<0.5 cm) (20×30×50 cm, Jeung-Do Bio & Plant Co., Ltd, Korea) was measured a total of three times, and a rest period of 30 minutes or longer was given between measurements. Experimental results were obtained by multiplying hanging time (sec) by body weight (kg). The statistical analysis of all data was performed using the Statistical Package for the Social Sciences (SPSS version 21.0, IBM, Armonk, N.Y., USA), and analysis values were expressed as mean±SEM, and a significant difference between groups was verified by ANOVA.

[10] = tested on: mouse myoblast cell line (C2C12 cells); experiment: Thickness of myotubes differentiated from mouse myoblasts, muscle reduction induced by dexamethasone; type: cell-based
Experimental: First, differentiation of myotubes from mouse myoblasts was induced. A mouse myoblast cell line (C2C12 cells) was purchased from ATCC (Manassas, Va., USA) and used. The purchased cells were inoculated in 10% fetal bovine serum media (Gibco-BRL) and incubated in a 5% CO2 incubator at 37° C. When the confluency of the cells attached to the media became 80% or higher, the cells were transferred to 2% horse serum media (Gibco-BRL) to differentiate myoblasts into myotubes.
For two days (48 hours) from day 4 after differentiation into myotubes started to be induced, the media were treated with 50 μM dexamethasone (dexa; Sigma Aldrich, USA) to induce muscle reduction. […] As a non-treated control, cells treated with only dexamethasone and not treated with ethyl vanillin were used.
After completion of the incubation, the cells were washed twice with phosphate buffered saline (PBS), and then fixed by treatment with 100% methanol for 10 minutes. […]
The stained myotubes were photographed using a fluorescence microscope (IX 71, Olympus) at a magnification of 10×, and then analyzed using image J software (USA). Six sections were randomly selected from each well and micrographed, and the thickness of at least 100 myotubes from each well was analyzed (three repetitions/group).

## CCOc1cc(C=O)ccc1O [ethyl vanillin, 3-ethoxy-4-hydroxybenzaldehyde]
[1]
  increase in grip strength (force/body weight) vs high-fat diet: 27%
[2]; chloroform
  solubility in chloroform: soluble
[2]; ethanol
  solubility in ethanol: soluble
[2]; water
  solubility in water: insoluble
[3]
  amount of p-4E-BP1 protein: significantly increases
[4]
  amount of p-p70S6K1 protein: significantly increases
[5]
  expression of Myostatin (mRNA): significantly reducing
[6]
  expression of MuRF1 (mRNA): significantly reducing; also recorded: significantly reduces
[7]
  expression of MaFbx/atrogin 1 (mRNA): significantly reducing; also recorded: significantly reduces
[8]
  increase in fiber diameter of the tibialis anterior vs high-fat diet: 57%
[9]
  increase in holding impulse (hanging time x body weight) vs high-fat diet: 147%
[10]; 100 μM ethyl vanillin along with 50 μM dexamethasone, 48 hours, C2C12 myotubes
  increase in thickness of myotubes compared to reduction caused by dexamethasone: 49%
[10]; treated with ethyl vanillin, vs dexamethasone
  number of myotubes of mouse myoblasts reduced by dexamethasone: significantly increased

Source: patent US11576875B2 (priority 2017, dated 2023)
